From the supplement of paper PMC11061612

Tests used:
[1] = system: COR-L88 (Small Cell Lung Carcinoma); test: Bliss excess, mean over the matrix (fraction); higher = more synergy
Procedure, shortened: (§1)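 Cell lines grown in DMEM/F12 or RPMI with 10% FBS were plated in 1536-well plates and held 24 hours at 37°C, 5% CO2 before 72 hours of exposure to two-drug dose matrices, with DMSO typically at 0.2%. CellTiter-Glo 2.0 luminescence gave viability, which was converted to inhibition. Vehicle wells were set to 0 and blank wells to 1. Combination Emax is the second-highest inhibition in the matrix, and Bliss excess is the observed combination effect minus the expected EA + EB − EA·EB, where EA and EB are the single-agent effects.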

GAK (Melanoma) = test: as above
Procedure, shortened: as §1

[2] = system: HT-1080 (Other Solid Carcinomas); test: as above
Procedure, shortened: as §1

[3] = system: IA-LM (Non-Small Cell Lung Carcinoma); test: as above
Procedure, shortened: as §1

IST-MEL1 (Melanoma) = test: as above
Procedure, shortened: as §1

[4] = system: KP-4 (Pancreatic Carcinoma); test: as above
Procedure, shortened: as §1

[5] = system: MM1S (Plasma Cell Myeloma); test: as above
Procedure, shortened: as §1

[6] = system: MOLT-13 (T-Lymphoblastic Leukemia); test: as above
Procedure, shortened: as §1

[7] = system: MS-1 (Small Cell Lung Carcinoma); test: as above
Procedure, shortened: as §1

NB1 (Neuroblastoma) = test: as above
Procedure, shortened: as §1

[8] = system: NCI-H1341 (Small Cell Lung Carcinoma); test: as above
Procedure, shortened: as §1

[9] = system: NMC-G1 (Low Grade Glioma); test: as above
Procedure, shortened: as §1

[10] = system: Raji (Burkitt's Lymphoma); test: as above
Procedure, shortened: as §1

[11] = system: SK-CO-1 (Colorectal Carcinoma); test: as above
Procedure, shortened: as §1

[12] = system: SNU-407 (Colorectal Carcinoma); test: as above
Procedure, shortened: as §1

[13] = system: SNU-423 (Hepatocellular Carcinoma); test: as above
Procedure, shortened: as §1

UACC-257 (Melanoma) = test: as above
Procedure, shortened: as §1

[14] = system: BxPC-3 (Pancreatic Carcinoma); test: combination Emax (second highest fraction inhibited in the dose matrix, 72 h); higher = more inhibition; extreme values may be limits of the assay
Procedure, shortened: as §1

[15] = system: NCI-H1876 (Small Cell Lung Carcinoma); test: as above
Procedure, shortened: as §1

[16] = system: SNU-407 (Colorectal Carcinoma); test: as above
Procedure, shortened: as §1
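Wherever Bliss excess, mean over the matrix is given: after 72 h of two-drug dosing.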

Work on `C[C@@H]1COCCN1c1cc(C2([S@](C)(=N)=O)CC2)nc(-c2ccnc3[nH]ccc23)n1` [AZD6738] + O=C(c1cc(Cc2n[nH]c(=O)c3ccccc23)ccc1F)N1CCN(C(=O)C2CC2)CC1 [Olaparib] (first compound max 10 µM, 7x7, partner max 10 µM) yielded a Bliss excess [1] of -0.12, a Bliss excess (GAK (Melanoma)) of 0.0019 and a Bliss excess [2] of 0.0128. The Bliss excess [3] was 0.0137, the Bliss excess (IST-MEL1 (Melanoma)) was 0.035 and the Bliss excess [4] was 0.113. The Bliss excess [5] was -0.0388, the Bliss excess [6] was 0.0645 and the Bliss excess [7] was 0.0056. It also gave a Bliss excess (NB1 (Neuroblastoma)) of -0.058, a Bliss excess [8] of -0.0105 and a Bliss excess [9] of 0.0071. It also gave a Bliss excess [10] of -0.0204, a Bliss excess [11] of 0.013 and a Bliss excess [12] of -0.0323. For the same compound, the Bliss excess [13] was -0.0005, the Bliss excess (UACC-257 (Melanoma)) was -0.0009 and the “combination Emax” value [14] was 0.485. The “combination Emax” value [15] was 0.945 and the “combination Emax” value [16] was 0.75.

For `Cc1c2c(nn1C)CSCc1cc(n(C)n1)CSc1cc(c3ccccc3c1)OCCCc1c(C(=O)O)n(C)c3c-2c(Cl)ccc13` [AZD5991] + C[C@@H](Nc1cc(F)cc(F)c1)c1cc(C(=O)N(C)C)cc2c(=O)cc(N3CCOCC3)oc12 [AZD8186] (first compound max 1 µM, 7x7, partner max 3 µM), the Bliss excess [1] was -0.0524, the Bliss excess (GAK (Melanoma)) was 0.0257 and the Bliss excess [2] was -0.0338. It also gave a Bliss excess [3] of -0.0274, a Bliss excess (IST-MEL1 (Melanoma)) of -0.0184 and a Bliss excess [4] of -0.0235. For the same compound, the Bliss excess [5] was 0.0187, the Bliss excess [6] was -0.0116 and the Bliss excess [7] was -0.0481. For the same compound, the Bliss excess (NB1 (Neuroblastoma)) was -0.0275, the Bliss excess [8] was 0.0352 and the Bliss excess [9] was -0.059. For the same compound, the Bliss excess [10] was 0.0164, the Bliss excess [11] was -0.0398 and the Bliss excess [12] was -0.0139. For the same compound, the Bliss excess [13] was -0.0326, the Bliss excess (UACC-257 (Melanoma)) was -0.0234 and the “combination Emax” value [14] was 0.206. For the same compound, the “combination Emax” value [15] was 0.711 and the “combination Emax” value [16] was 0.672.

`CN(C)CCCOc1ccc(-c2ccc3ncc4c(c3c2)n(C2CCOCC2)c(=O)n4C)cn1` [AZD0156] + C=CCn1c(=O)c2cnc(Nc3ccc(N4CCN(C)CC4)cc3)nc2n1-c1cccc(C(C)(C)O)n1 [AZD1775] (first compound max 1 µM, partner max 1 µM) gave a Bliss excess [1] of -0.0013, a Bliss excess (GAK (Melanoma)) of -0.0058 and a Bliss excess [2] of -0.0316. For the same compound, the Bliss excess [3] was -0.0068, the Bliss excess (IST-MEL1 (Melanoma)) was -0.0225 and the Bliss excess [4] was -0.0898. The Bliss excess [5] was -0.0653, the Bliss excess [6] was 0.0227 and the Bliss excess [7] was -0.0301. It also gave a Bliss excess (NB1 (Neuroblastoma)) of -0.0109, a Bliss excess [8] of -0.0201 and a Bliss excess [9] of -0.0467. It also gave a Bliss excess [10] of -0.0278, a Bliss excess [11] of -0.0523 and a Bliss excess [12] of -0.0136. For the same compound, the Bliss excess [13] was -0.0554, the Bliss excess (UACC-257 (Melanoma)) was -0.0223 and the “combination Emax” value [14] was 0.457. The “combination Emax” value [15] was 0.982 and the “combination Emax” value [16] was 0.358.

For `CN(C)CCCOc1ccc(-c2ccc3ncc4c(c3c2)n(C2CCOCC2)c(=O)n4C)cn1` [AZD0156] + CCN(CCO)CCCOc1ccc2c(Nc3cc(CC(=O)Nc4cccc(F)c4)[nH]n3)ncnc2c1 [AZD2811] (first compound max 1 µM, 7x7, partner max 1 µM), the Bliss excess [1] was -0.0279, the Bliss excess (GAK (Melanoma)) was -0.0025 and the Bliss excess [2] was -0.0159. It also gave a Bliss excess [3] of -0.0326, a Bliss excess (IST-MEL1 (Melanoma)) of -0.0131 and a Bliss excess [4] of -0.0162. The Bliss excess [5] was 0.0135, the Bliss excess [6] was 0.0392 and the Bliss excess [7] was 0.0331. The Bliss excess (NB1 (Neuroblastoma)) was -0.0137, the Bliss excess [8] was 0.005 and the Bliss excess [9] was -0.0855. The Bliss excess [10] was 0.0082, the Bliss excess [11] was 0.0205 and the Bliss excess [12] was -0.0247. The Bliss excess [13] was -0.0192, the Bliss excess (UACC-257 (Melanoma)) was -0.039 and the “combination Emax” value [14] was 0.101. The “combination Emax” value [15] was 0.853 and the “combination Emax” value [16] was 0.287.

`CN(C)CCCOc1ccc(-c2ccc3ncc4c(c3c2)n(C2CCOCC2)c(=O)n4C)cn1` [AZD0156] + C[C@@H]1COCCN1C2=NC(=NC(=C2)C3(CC3)[S@](=N)(=O)C)C4=C5C=CNC5=NC=C4 [AZD6738] (first compound max 1 µM, 7x7, partner max 10 µM) showed a Bliss excess [1] of 0.0772, a Bliss excess (GAK (Melanoma)) of 0.0448 and a Bliss excess [2] of 0.02. It also gave a Bliss excess [3] of -0.0241, a Bliss excess (IST-MEL1 (Melanoma)) of -0.0196 and a Bliss excess [4] of -0.0286. The Bliss excess [5] was 0.0173, the Bliss excess [6] was 0.0472 and the Bliss excess [7] was 0.0279. It also gave a Bliss excess (NB1 (Neuroblastoma)) of 0.0522, a Bliss excess [8] of 0.0309 and a Bliss excess [9] of -0.0603. The Bliss excess [10] was 0.0164, the Bliss excess [11] was -0.0865 and the Bliss excess [12] was -0.0322. The Bliss excess [13] was -0.0414, the Bliss excess (UACC-257 (Melanoma)) was -0.0338 and the “combination Emax” value [14] was 0.475. For the same compound, the “combination Emax” value [15] was 0.938 and the “combination Emax” value [16] was 0.742.

In the case of `Cc1cc2ncnn2cc1Nc1ncc2c(n1)n(C1CCOCC1)c(=O)n2C` [AZD7648] + CCN(CCO)CCCOc1ccc2c(Nc3cc(CC(=O)Nc4cccc(F)c4)[nH]n3)ncnc2c1 [AZD2811] (first compound max 10 µM, 7x7, partner max 1 µM), the Bliss excess [1] was 0.0077, the Bliss excess (GAK (Melanoma)) was -0.035 and the Bliss excess [2] was 0.0364. The Bliss excess [3] was 0.0156, the Bliss excess (IST-MEL1 (Melanoma)) was 0.03 and the Bliss excess [4] was -0.0425. It also gave a Bliss excess [5] of 0.0333, a Bliss excess [6] of -0.0152 and a Bliss excess [7] of 0.0104. It also gave a Bliss excess (NB1 (Neuroblastoma)) of -0.0026, a Bliss excess [8] of 0.0568 and a Bliss excess [9] of -0.0407. It also gave a Bliss excess [10] of 0.0312, a Bliss excess [11] of -0.0524 and a Bliss excess [12] of 0.023. The Bliss excess [13] was -0.0408, the Bliss excess (UACC-257 (Melanoma)) was 0.0315 and the “combination Emax” value [14] was 0.25. The “combination Emax” value [15] was 0.794 and the “combination Emax” value [16] was 0.376.

In the case of `CC1(C)CCC(CN2CCN(c3ccc(C(=O)NS(=O)(=O)c4ccc(NCC5CCOCC5)c([N+](=O)[O-])c4)c(Oc4cnc5[nH]ccc5c4)c3)CC2)=C(c2ccc(Cl)cc2)C1` [Venetoclax] + C=CCn1c(=O)c2cnc(Nc3ccc(N4CCN(C)CC4)cc3)nc2n1-c1cccc(C(C)(C)O)n1 [AZD1775] (first compound max 1 µM, partner max 1 µM), the Bliss excess [1] was 0.0736, the Bliss excess (GAK (Melanoma)) was 0.0074 and the Bliss excess [2] was -0.0359. The Bliss excess [3] was -0.0386, the Bliss excess (IST-MEL1 (Melanoma)) was 0.0462 and the Bliss excess [4] was -0.0385. It also gave a Bliss excess [5] of -0.0281, a Bliss excess [6] of 0.0723 and a Bliss excess [7] of 0.0465. The Bliss excess (NB1 (Neuroblastoma)) was -0.0466, the Bliss excess [8] was 0.101 and the Bliss excess [9] was 0.0064. It also gave a Bliss excess [10] of -0.023, a Bliss excess [11] of -0.04 and a Bliss excess [12] of -0.0755. The Bliss excess [13] was -0.0472, the Bliss excess (UACC-257 (Melanoma)) was -0.0142 and the “combination Emax” value [14] was 0.727. The “combination Emax” value [15] was 0.994 and the “combination Emax” value [16] was 0.558.
